Source: patent US20220169629A1, “PESTICIDALLY ACTIVE DIAZINE-AMIDE COMPOUNDS” (SYNGENTA CROP PROTECTION AG, priority 2019, published 2022)

Experiments:
Assay type in all cases: in vivo
[1] = system: Plutella xylostella (diamond back moth); test: Example B5: Plutella xylostella (diamond back moth), artificial diet, 24-well, eggs; details: 192 h, application rate of 200 ppm, 8 days after infestation, read-out: control in at least one of the two categories (mortality or growth inhibition)
Procedure: Example B5: Plutella xylostella (Diamond Back Moth)
24-well microtiter plates with artificial diet were treated with aqueous test solutions prepared from 10′000 ppm DMSO stock solutions by pipetting. After drying, Plutella eggs were pipetted through a plastic stencil onto a gel blotting paper and the plate was closed with it. The samples were assessed for mortality and growth inhibition in comparison to untreated samples 8 days after infestation.

[2] = system: Chilo suppressalis (striped rice stemborer); test: Example B4: Chilo suppressalis (striped rice stemborer), artificial diet, L2 larvae; details: 144 h, application rate of 200 ppm, 6 days after infestation, L2 larvae on artificial diet, read-out: control in at least one of the three categories (mortality, anti-feeding or growth inhibition)
Procedure: Example B4: Chilo suppressalis (Striped rice stemborer)
24-well microtiter plates with artificial diet were treated with aqueous test solutions prepared from 10′000 ppm DMSO stock solutions by pipetting. After drying, the plates were infested with L2 larvae (6-8 per well). The samples were assessed for mortality, anti-feeding effect, and growth inhibition in comparison to untreated samples 6 days after infestation. Control of Chilo suppressalis by a test sample is given when at least one of the categories mortality, anti-feedant effect, and growth inhibition is higher than the untreated sample.

[3] = system: Spodoptera littoralis (Egyptian cotton leaf worm); test: Example B7: Spodoptera littoralis (Egyptian cotton leaf worm), sprayed cotton leaf discs, L1 larvae; details: foliar, 72 h, application rate of 200 ppm, 3 days after infestation, L1 larvae on cotton leaf discs, read-out: control in at least one of the three categories (mortality, anti-feeding or growth inhibition)
Procedure: Example B7: Spodoptera littoralis (Egyptian Cotton Leaf Worm)
Cotton leaf discs were placed onto agar in 24-well microtiter plates and sprayed with aqueous test solutions prepared from 10′000 ppm DMSO stock solutions. After drying the leaf discs were infested with five L1 larvae. The samples were assessed for mortality, anti-feeding effect, and growth inhibition in comparison to untreated samples 3 days after infestation. Control of Spodoptera littoralis by a test sample is given when at least one of the categories mortality, anti-feedant effect, and growth inhibition is higher than the untreated sample.

[4] = system: Diabrotica balteata (corn root worm); test: Example B1: Diabrotica balteata (corn root worm), sprayed maize sprouts, L2 larvae; details: 96 h, application rate of 200 ppm, 4 days after infestation, L2 larvae on maize sprouts, read-out: control in at least one of the two categories (mortality or growth inhibition)
Procedure: Example B1: Diabrotica Balteata (Corn Root Worm)
Maize sprouts placed onto an agar layer in 24-well microtiter plates were treated with aqueous test solutions prepared from 10′000 ppm DMSO stock solutions by spraying. After drying, the plates were infested with L2 larvae (6 to 10 per well). The samples were assessed for mortality and growth inhibition in comparison to untreated samples 4 days after infestation.

[5] = system: Plutella xylostella (diamondback moth); test: Example B10: Plutella xylostella (diamondback moth), 96-well artificial diet; details: 216 h, application rate of 500 ppm, 9 days after infestation, eggs/L1 larvae
Procedure: Example B10: Plutella xylostella (Diamondback Moth)
96-well microtiter plates containing artificial diet were treated with aqueous test solutions, prepared from 10′000 ppm DMSO stock solutions, by a liquid handling robot. After drying, eggs (˜30 per well) were infested onto a netted lid which was suspended above the diet. The eggs hatch and L1 larvae move down to the diet. The samples were assessed for mortality 9 days after infestation.

CC(NC(=O)c1cc(OCC(F)F)cc(C(F)(F)F)c1)c1nccnc1-c1ccc(OC(F)F)cn1 (stereo not drawn) [Compound P2, 3-(2,2-difluoroethoxy)-N-[1-[3-[5-(difluoromethoxy)-2-pyridyl]pyrazin-2-yl]ethyl]-5-(trifluoromethyl)benzamide]
≥ 80%: percent control (mortality or growth inhibition) at 200 ppm [1] | control at 200 ppm [2] | percent control (mortality, anti-feeding or growth inhibition) at 200 ppm [3]

CC(NC(=O)c1cc(OC(F)F)cc(C(F)(F)F)c1)c1nccnc1-c1ccc(OC(F)F)cn1 (stereo not drawn) [Compound P4, 3-(difluoromethoxy)-N-[1-[3-[5-(difluoromethoxy)-2-pyridyl]pyrazin-2-yl]ethyl]-5-(trifluoromethyl)benzamide]
≥ 80%: percent control (mortality or growth inhibition) at 200 ppm [1] | control at 200 ppm [2] | percent control (mortality, anti-feeding or growth inhibition) at 200 ppm [3] | percent control (mortality or growth inhibition) at 200 ppm [4]

CC(NC(=O)c1cc(OCC(F)(F)F)cc(C(F)(F)F)c1)c1nccnc1-c1ccc(OC(F)F)cn1 (stereo not drawn) [Compound P6, N-[1-[3-[5-(difluoromethoxy)-2-pyridyl]pyrazin-2-yl]ethyl]-3-(2,2,2-trifluoroethoxy)-5-(trifluoromethyl)benzamide]
≥ 80%: percent control (mortality or growth inhibition) at 200 ppm [1] | control at 200 ppm [2] | percent control (mortality, anti-feeding or growth inhibition) at 200 ppm [3] | percent control (mortality or growth inhibition) at 200 ppm [4]

CC(NC(=O)c1cc(Cl)cc(C(F)(F)F)c1)c1nccnc1-c1ccc(C#N)cn1 (stereo not drawn) [Compound P7, 3-chloro-N-[1-[3-(5-cyano-2-pyridyl)pyrazin-2-yl]ethyl]-5-(trifluoromethyl)benzamide]
≥ 80%: percent control (mortality or growth inhibition) at 200 ppm [1] | control at 200 ppm [2] | percent control (mortality, anti-feeding or growth inhibition) at 200 ppm [3] | percent control (mortality or growth inhibition) at 200 ppm [4]

CC(NC(=O)c1cc(Cl)cc(C(F)(F)F)c1)c1nccnc1-c1ccc(OC(F)F)cn1 (stereo not drawn) [Compound P8, 3-chloro-N-[1-[3-[5-(difluoromethoxy)-2-pyridyl]pyrazin-2-yl]ethyl]-5-(trifluoromethyl)benzamide]
≥ 80%: percent control (mortality or growth inhibition) at 200 ppm [1] | control at 200 ppm [2] | percent control (mortality, anti-feeding or growth inhibition) at 200 ppm [3] | percent control (mortality or growth inhibition) at 200 ppm [4]

CC(NC(=O)c1cc(Br)cc(C(F)(F)F)c1)c1nccnc1-c1ncc(OCC(F)(F)F)cn1 (stereo not drawn) [Compound P9, 3-bromo-N-[1-[3-[5-(2,2,2-trifluoroethoxy)pyrimidin-2-yl]pyrazin-2-yl]ethyl]-5-(trifluoromethyl)benzamide]
≥ 80%: percent control (mortality or growth inhibition) at 200 ppm [1] | control at 200 ppm [2] | percent control (mortality, anti-feeding or growth inhibition) at 200 ppm [3] | percent control (mortality or growth inhibition) at 200 ppm [4]

CC(NC(=O)c1cc(Br)cc(C(F)(F)F)c1)c1nccnc1-c1ccc(C#N)cn1 (stereo not drawn) [Compound P10, 3-bromo-N-[1-[3-(5-cyano-2-pyridyl)pyrazin-2-yl]ethyl]-5-(trifluoromethyl)benzamide]
≥ 80%: percent control (mortality or growth inhibition) at 200 ppm [1] | control at 200 ppm [2] | percent control (mortality, anti-feeding or growth inhibition) at 200 ppm [3] | percent control (mortality or growth inhibition) at 200 ppm [4]

CC(NC(=O)c1cc(Br)cc(C(F)(F)F)c1)c1nccnc1-c1ccc(OC(F)F)cn1 (stereo not drawn) [Compound P11, 3-bromo-N-[1-[3-[5-(difluoromethoxy)-2-pyridyl]pyrazin-2-yl]ethyl]-5-(trifluoromethyl)benzamide]
≥ 80%: percent control (mortality or growth inhibition) at 200 ppm [1] | control at 200 ppm [2] | percent control (mortality, anti-feeding or growth inhibition) at 200 ppm [3] | percent control (mortality or growth inhibition) at 200 ppm [4]

CC(NC(=O)c1cc(OC(F)F)cc(C(F)(F)F)c1)c1nccnc1-c1ccc(OCC(F)(F)F)cn1 (stereo not drawn) [Compound P12, 3-(difluoromethoxy)-N-[1-[3-[5-(2,2,2-trifluoroethoxy)-2-pyridyl]pyrazin-2-yl]ethyl]-5-(trifluoromethyl)benzamide]
≥ 80%: mortality at 500 ppm [5] | percent control (mortality or growth inhibition) at 200 ppm [1] | control at 200 ppm [2] | percent control (mortality, anti-feeding or growth inhibition) at 200 ppm [3]

CC(NC(=O)c1cc(OC(F)F)cc(C(F)(F)F)c1)c1nccnc1-c1ccc(OCC(F)F)cn1 (stereo not drawn) [Compound P13, N-[1-[3-[5-(2,2-difluoroethoxy)-2-pyridyl]pyrazin-2-yl]ethyl]-3-(difluoromethoxy)-5-(trifluoromethyl)benzamide]
≥ 80%: mortality at 500 ppm [5] | percent control (mortality or growth inhibition) at 200 ppm [1] | control at 200 ppm [2] | percent control (mortality, anti-feeding or growth inhibition) at 200 ppm [3] | percent control (mortality or growth inhibition) at 200 ppm [4]

CC(NC(=O)c1cc(OCC(F)(F)F)cc(C(F)(F)F)c1)c1nccnc1-c1ccc(OCC(F)(F)F)cn1 (stereo not drawn) [Compound P14, 3-(2,2,2-trifluoroethoxy)-N-[1-[3-[5-(2,2,2-trifluoroethoxy)-2-pyridyl]pyrazin-2-yl]ethyl]-5-(trifluoromethyl)benzamide]
≥ 80%: mortality at 500 ppm [5] | percent control (mortality or growth inhibition) at 200 ppm [1] | control at 200 ppm [2]

CC(NC(=O)c1cc(OCC(F)F)cc(C(F)(F)F)c1)c1nccnc1-c1ccc(OCC(F)(F)F)cn1 (stereo not drawn) [Compound P17, 3-(2,2-difluoroethoxy)-N-[1-[3-[5-(2,2,2-trifluoroethoxy)-2-pyridyl]pyrazin-2-yl]ethyl]-5-(trifluoromethyl)benzamide]
≥ 80%: mortality at 500 ppm [5] | percent control (mortality or growth inhibition) at 200 ppm [1] | percent control (mortality, anti-feeding or growth inhibition) at 200 ppm [3]

CC(NC(=O)c1cc(Br)cc(C(F)(F)F)c1)c1nccnc1-c1ccc(OCC(F)(F)F)cn1 (stereo not drawn) [Compound P18, 3-bromo-N-[1-[3-[5-(2,2,2-trifluoroethoxy)-2-pyridyl]pyrazin-2-yl]ethyl]-5-(trifluoromethyl)benzamide]
≥ 80%: mortality at 500 ppm [5] | percent control (mortality or growth inhibition) at 200 ppm [1] | control at 200 ppm [2] | percent control (mortality, anti-feeding or growth inhibition) at 200 ppm [3]

CC(NC(=O)c1cc(Cl)cc(C(F)(F)F)c1)c1nccnc1-c1ccc(OCC(F)F)cn1 (stereo not drawn) [Compound P20, 3-chloro-N-[1-[3-[5-(2,2-difluoroethoxy)-2-pyridyl]pyrazin-2-yl]ethyl]-5-(trifluoromethyl)benzamide]
≥ 80%: mortality at 500 ppm [5] | percent control (mortality or growth inhibition) at 200 ppm [1] | control at 200 ppm [2] | percent control (mortality, anti-feeding or growth inhibition) at 200 ppm [3]

CC(NC(=O)c1cc(C(F)(F)F)cc(C(F)(F)F)c1)c1nccnc1-c1ccc(C#N)cn1 (stereo not drawn) [Compound P31, N-[1-[3-(5-cyano-2-pyridyl)pyrazin-2-yl]ethyl]-3,5-bis(trifluoromethyl)benzamide]
≥ 80%: mortality at 500 ppm [5] | percent control (mortality or growth inhibition) at 200 ppm [1] | control at 200 ppm [2] | percent control (mortality, anti-feeding or growth inhibition) at 200 ppm [3]

CC(NC(=O)c1cc(OCC(F)F)cc(C(F)(F)F)c1)c1nccnc1-c1ncc(OCC(F)F)cn1 (stereo not drawn) [Compound P32, 3-(2,2-difluoroethoxy)-N-[1-[3-[5-(2,2-difluoroethoxy)pyrimidin-2-yl]pyrazin-2-yl]ethyl]-5-(trifluoromethyl)benzamide]
≥ 80%: percent control (mortality or growth inhibition) at 200 ppm [1] | control at 200 ppm [2] | percent control (mortality, anti-feeding or growth inhibition) at 200 ppm [3]

CC(NC(=O)c1cc(Cl)cc(C(F)(F)F)c1)c1nccnc1-c1ncc(OCC(F)F)cn1 (stereo not drawn) [Compound P36, 3-chloro-N-[1-[3-[5-(2,2-difluoroethoxy)pyrimidin-2-yl]pyrazin-2-yl]ethyl]-5-(trifluoromethyl)benzamide]
≥ 80%: percent control (mortality or growth inhibition) at 200 ppm [1] | percent control (mortality, anti-feeding or growth inhibition) at 200 ppm [3]

CC(NC(=O)c1cc(OCC(F)(F)F)cc(C(F)(F)F)c1)c1nccnc1-c1ncc(OCC(F)F)cn1 (stereo not drawn) [Compound P38, N-[1-[3-[5-(2,2-difluoroethoxy)pyrimidin-2-yl]pyrazin-2-yl]ethyl]-3-(2,2,2-trifluoroethoxy)-5-(trifluoromethyl)benzamide]
≥ 80%: percent control (mortality or growth inhibition) at 200 ppm [1] | control at 200 ppm [2] | percent control (mortality, anti-feeding or growth inhibition) at 200 ppm [3]
